Laboratory results published in publication PMC12662848 (Cancer Chemotherapy and Pharmacology, 2025).
Where two headings read alike, the source gives them in different places.

Columns and labels:
CLL = details: cited from earlier work
BCL-2β mRNA = experiment: qPCR analysis of BCL-2β mRNA in healthy donor PBMCs treated ex vivo with ABT-199; type: cell-based, human; details: 1 µM; for BCL-2β mRNA levels: 2–4 h post-treatment
Experimental: PBMCs from the trial patients or healthy donors were isolated from whole blood using Lymphoprep™ ([…] Technologies, Cat. #07801) following the manufacturer’s protocol. Whole blood was diluted 1:1 with room temperature phosphate-buffered saline (PBS) containing 2% fetal bovine serum (FBS) and carefully layered over an equal volume of Lymphoprep™ in a 50 mL conical tube. Samples were centrifuged at 800 × g for 20–30 min at room temperature with the brake off. The PBMC layer formed at the interface between the plasma and Lymphoprep™ was gently collected and transferred to a new tube. Cells were washed once with PBS containing 2% FBS by centrifugation at 300 × g for 10 min, and the final pellet was resuspended in DMEM media for downstream culture.
ABT-199 (S8048, Selleck Chemicals) was dissolved in DMSO. Healthy donor PBMCs were seeded at a density of 2 × 10⁶ cells per 60 mm dish and treated with 1 μM of ABT-199 for various time intervals (i.e., 2, 4, 8, and 24 h). At the end of each time point, PBMCs were harvested for protein and RNA extraction (below). All treatments were performed in 3–6 biological replicates and control samples were treated with vehicle (DMSO) only.
We developed a qPCR-based strategy to quantitatively analyze the BCL-2α/β mRNA levels in control and ABT-199 treated PBMCs (above). Briefly, total RNA was extracted using the PicoPure™ RNA Isolation Kit (Thermo Fisher Scientific, cat# KIT0204) with on-column DNase treatment. cDNA was synthesized from 750 ng RNA using SuperScript™ IV VILO™ Master Mix (Thermo Fisher Scientific, cat# 11,756,050). Quantitative PCR was performed using TaqMan Gene Expression Assays (Bio-Rad) with a FAM-conjugated custom probe specific for the BCL-2β isoform (5’-[…]-3’; Bio-Rad, part# 10,031,261). […] Reactions were run on the QuantStudio™ 6 Flex Real-Time PCR System (Applied Biosystems) under standard cycling conditions. Relative expression was calculated using the 2^–ΔΔCt method normalized to the 0-h (untreated) control. All conditions were tested in technical triplicates from 3–6 independent experiments.

AR−/lo LAPC9-CRPC = test system: AR−/lo LAPC9-CRPC; set-up: method as in PMID 30190514; details: single agent; cited from earlier work
[1] = set-up: method as in PMID 34416076; details: cited from earlier work
[2] = Venetoclax plasma PK in combination with enzalutamide (LC–MS/MS, non-compartmental); type: in vivo, human; details: for half-life: read-out: D1 t½ (converted); for AUC(0-inf): read-out: D1 AUC0-inf; for Tmax: read-out: D1 Tmax
Experimental: A volume of 50 μL of the standard, QC, or sample plasma was pipetted into a microfuge tube and 10 μL of internal standard (IS; 500 ng/mL ^2H7-venetoclax) was added to each. Next, 200 μL of acetonitrile was added followed by vortexing for 30 s. Samples were centrifuged at 17,200 × g at room temperature for 10 min. Supernatants were transferred to autosampler vials, followed by injection of 5 μL into the LC–MS/MS system. The LC system consisted of an Exion autosampler with binary pump (Sciex, Framingham, MA, USA), Synergi Polar-RP C18 (4 µm, 2.1 × 50 mm) column kept at 30 °C. The autosampler temperature was also kept at 10 °C. Mobile phase solvent A consisted of 0.1% formic acid in water and mobile phase solvent B consisted of 0.1% formic acid in acetonitrile, mixed at 60% B. A. flow rate of 0.4 mL/min between 0–3 min and 1 mL/min from 3–5 min. Retention time of venetoclax was 1.7 min. MS detection was carried out using an ABI SCIEX (Concord, ON, Canada) 4500 tandem mass spectrometer with electrospray ionization in positive multiple reaction monitoring (MRM) mode, monitoring m/z transitions: 868.40 > 836.3 for venetoclax and 875.4 > 643.3 for venetoclax IS. QC based accuracies (N = 6, each of 3 days) were 100.9–106.2%. The intra- and inter-assay precisions were < 10.6% and < 2.4%.

[3] = cited from earlier work
[4] = Total (N = 10), venetoclax 400–800 mg with enzalutamide 160 mg/d, geometric mean (geometric SD)
[5] = Total (N = 10), venetoclax 400–800 mg with enzalutamide 160 mg/d, geometric mean (geometric SD), listed as Venetoclax
[6] = male, human, plasma, oral, 400 mg
[7] = male, human, plasma, oral, 600 mg
[8] = male, human, plasma, oral, 800 mg
[9] = venetoclax 400 mg (N = 3) with enzalutamide 160 mg/d, plasma, geometric mean (geometric SD)
[10] = venetoclax 600 mg (N = 3) with enzalutamide 160 mg/d, plasma, geometric mean (geometric SD)
[11] = venetoclax 800 mg (N = 4) with enzalutamide 160 mg/d, plasma, geometric mean (geometric SD)

CC1(C)CCC(CN2CCN(c3ccc(C(=O)NS(=O)(=O)c4ccc(NCC5CCOCC5)c([N+](=O)[O-])c4)c(Oc4cnc5[nH]ccc5c4)c3)CC2)=C(c2ccc(Cl)cc2)C1 [venetoclax]
Average steady-state venetoclax concentration required for a 50% tumor shrinkage (CLL): 146 µg/L
Average steady-state venetoclax concentration that decreases lymphocyte counts by 50% from baseline (CLL): 8.63 µg/L
Extension of PFS with a doubling of dose (CLL): 6 months
BCL-2β mRNA levels (BCL-2β mRNA): induced
BCL-2β mRNA levels (BCL-2β mRNA; listed as Venetoclax): increased significantly
BCL-2β mRNA (BCL-2β mRNA; ≥ 24 h post treatment): undetectable
Growth of AR−/lo LAPC9-CRPC (AR−/lo LAPC9-CRPC): greatly inhibited
Permeability [1]: low
Solubility [1]: low
D1 Cl/F [2, 4]: approximately 42 L/h
D1 Cmax/Dose [2, 4]: 1.54 (1.54) µg/L/mg
D1 Tmax [2, 4]: 6.0 (1.3) h
D15 Cmin [2, 4]: 188 (2.17) µg/L
D1 Cl/F [2, 5]: 42.1 (1.76) L/h
D1 t½ [2, 5]: 8.9 (1.6) h
Ratio D29/D1 (day 29 AUC0–24 over day 1 AUC0-inf) ([2]; Total, venetoclax 400–800 mg with enzalutamide 160 mg/d, geometric mean (geometric SD)): 0.77 (2.90)
Variability of the ratio of day 29 AUC0–24 over day 1 AUC0-inf ([2]; corresponding to geometric SD 2.90): 190 %CV
AUC(0-t) ([2]; human, plasma, oral, 800 mg, venetoclax 800 mg with enzalutamide 160 mg/d, plasma, N = 1 on D29, read-out: D29 AUC0-24): 8870 ng·h/mL
Cmax ([2]; human, plasma, oral, 800 mg, venetoclax 800 mg with enzalutamide 160 mg/d, plasma, N = 1 on D29, read-out: D29 Cmax): 1000 ng/mL
Increase in venetoclax apparent clearance ([2]; in combination with enzalutamide, versus previously reported values): 2–threefold
clearance ([2]; male, human, plasma, oral): ~700 mL/min
AUC(0-t) ([2]; male, human, plasma, oral, 400 mg, venetoclax 400 mg (N = 3) with enzalutamide 160 mg/d, plasma, geometric mean (geometric SD), read-out: D1 AUC0-last): 8020 ng·h/mL
Cmax ([2]; male, human, plasma, oral, 400 mg, venetoclax 400 mg (N = 3) with enzalutamide 160 mg/d, plasma, geometric mean (geometric SD), read-out: D1 Cmax): 658 ng/mL
half-life ([2]; male, human, plasma, oral, 400 mg, venetoclax 400 mg (N = 3) with enzalutamide 160 mg/d, plasma, geometric mean (geometric SD)): 11 h
AUC(0-t) ([2]; male, human, plasma, oral, 400 mg, venetoclax 400 mg (N = 3) with enzalutamide 160 mg/d, plasma, geometric mean (geometric SD), read-out: D29 AUC0-24): 10500 ng·h/mL
Cmax ([2]; male, human, plasma, oral, 400 mg, venetoclax 400 mg (N = 3) with enzalutamide 160 mg/d, plasma, geometric mean (geometric SD), read-out: D29 Cmax): 968 ng/mL
AUC(0-inf) [2, 6]: 11100 ng·h/mL
Tmax [2, 6]: 5.2 h
AUC(0-t) ([2]; male, human, plasma, oral, 600 mg, venetoclax 600 mg (N = 3) with enzalutamide 160 mg/d, plasma, geometric mean (geometric SD), read-out: D1 AUC0-last): 12200 ng·h/mL
Cmax ([2]; male, human, plasma, oral, 600 mg, venetoclax 600 mg (N = 3) with enzalutamide 160 mg/d, plasma, geometric mean (geometric SD), read-out: D1 Cmax): 1170 ng/mL
half-life ([2]; male, human, plasma, oral, 600 mg, venetoclax 600 mg (N = 3) with enzalutamide 160 mg/d, plasma, geometric mean (geometric SD)): 6.6 h
AUC(0-t) ([2]; male, human, plasma, oral, 600 mg, venetoclax 600 mg (N = 3) with enzalutamide 160 mg/d, plasma, geometric mean (geometric SD), read-out: D29 AUC0-24): 9110 ng·h/mL
Cmax ([2]; male, human, plasma, oral, 600 mg, venetoclax 600 mg (N = 3) with enzalutamide 160 mg/d, plasma, geometric mean (geometric SD), read-out: D29 Cmax): 554 ng/mL
AUC(0-inf) [2, 7]: 14600 ng·h/mL
Tmax [2, 7]: 5.6 h
AUC(0-t) ([2]; male, human, plasma, oral, 800 mg, venetoclax 800 mg (N = 4) with enzalutamide 160 mg/d, plasma, geometric mean (geometric SD), read-out: D1 AUC0-last): 8760 ng·h/mL
Cmax ([2]; male, human, plasma, oral, 800 mg, venetoclax 800 mg (N = 4) with enzalutamide 160 mg/d, plasma, geometric mean (geometric SD), read-out: D1 Cmax): 979 ng/mL
half-life ([2]; male, human, plasma, oral, 800 mg, venetoclax 800 mg (N = 4) with enzalutamide 160 mg/d, plasma, geometric mean (geometric SD)): 9.4 h
AUC(0-inf) [2, 8]: 16600 ng·h/mL
Tmax [2, 8]: 6.9 h
Cmax ([2]; male, human, plasma, oral, Total (N = 10), venetoclax 400–800 mg with enzalutamide 160 mg/d, geometric mean (geometric SD), read-out: D1 Cmax): 917 ng/mL
half-life ([2]; male, human, plasma, oral, Total (N = 10), venetoclax 400–800 mg with enzalutamide 160 mg/d, geometric mean (geometric SD)): ~9 h
Cmax ([2]; male, human, plasma, oral, Total, venetoclax 400–800 mg with enzalutamide 160 mg/d, N = 3, 3, and 1 on D29, geometric mean (geometric SD), read-out: D29 Cmax): 765 ng/mL
Ratio D29/D1 (day 29 AUC0–24 over day 1 AUC0-inf) ([2]; venetoclax 400 mg (N = 3) with enzalutamide 160 mg/d, geometric mean (geometric SD)): 0.95 (1.99)
D1 Cl/F [2, 9]: 36.2 (1.27) L/h
D1 Cmax/Dose [2, 9]: 1.64 (1.29) µg/L/mg
D15 Cmin [2, 9]: 180 (1.72) µg/L
Ratio D29/D1 (day 29 AUC0–24 over day 1 AUC0-inf) ([2]; venetoclax 600 mg (N = 3) with enzalutamide 160 mg/d, geometric mean (geometric SD)): 0.62 (5.32)
D1 Cl/F [2, 10]: 41.2 (1.65) L/h
D1 Cmax/Dose [2, 10]: 1.95 (1.79) µg/L/mg
D15 Cmin [2, 10]: 214 (2.30) µg/L
D1 Cl/F [2, 11]: 48.1 (2.31) L/h
D1 Cmax/Dose [2, 11]: 1.22 (1.50) µg/L/mg
D15 Cmin [2, 11]: 177 (2.89) µg/L
Ratio D29/D1 (day 29 AUC0–24 over day 1 AUC0-inf) ([2]; venetoclax 800 mg with enzalutamide 160 mg/d, N = 1 on D29): 0.79
Interpatient variability in Cmin ([2]; venetoclax, approximated from geometric SD (2.17–1)*100): ~117 %CV
Intrapatient variability in Cmin ([2]; venetoclax, from day 8 through 57, across doses): 51 %CV
Absolute bioavailability [3]: ~ 5%
Less than expected exposure when doubling dose ([3]; from 400 to 800 mg, population PK report): 12%
Cmax ([3]; previous values, 800 mg dose): 3740 ng/mL
Cmin ([3]; previous values, 800 mg dose): 1430 ng/mL
Venetoclax half-life ([3]; previously reported in AML patients): 14 to 26 h
Venetoclax clearance ([3]; previously reported): 413 L/day
